The IC50 is the concentration that inhibits the measured activity by half. Lower therefore signals greater potency.

The record followed here is patent US5972946A, “Acetamide derivative, process for preparing the same, and a pharmaceutical composition containing the same” (Dainippon Pharmaceutical Co., Ltd., priority 1995, dated 1999).

Structures are written as SMILES.

The nature of experiment [1]: Light and dark box test (anti-anxiety effect). It counts as in vivo, mouse (Std-ddY, male). As to conditions: Mus musculus, 0.5 h; oral, 30 min before test; mice; p<0.05 vs vehicle; read-out: Anti-anxiety effect MED (minimum effective dose). The source says: Experiment 2: Light and dark box test (anti-anxiety effect)
Anti-anxiety effect of test compounds was examined in a box with light and dark compartments according to the method of Crawley, J. and Goodwin, F. K. [cf. Pharmacol. Biochem. Behav. 13, 167-170 (1980)] with slight modification.
Light and dark box test is a useful, simple and handy method for behaviorally and pharmacologically examining anti-anxiety effect of the drugs, by utilizing the habit of rodents such as mice and rats, etc. which prefer to stay in a dark place, and regarding as positive drug effect the increase of the relative stay of the animals in the light compartment which is an uncomfortable place for the animals.
Light and dark box test was carried out using the test box device (35×15×17 cm) which comprises: a light compartment (20×15×17 cm) consisting of transparent acrylic plates and highly illuminated by an incandescent lamp (1,700 lux); a dark compartment (15×15×17 cm) being made of black acrylic plates connected to the light compartment; and at the boundary of compartments, an opening (4.4×5 cm) in which mice can go through freely between two compartments.
Male mice of Std-ddY strain weighing 25-30 g were used in a group of 10. Each trial was started by placing a mouse in the center of the light compartment 30 minutes after oral administration of a test compound, and the time spent by the mouse in the light compartment during a 5 minute observation period was measured, and the rate of the stay of mice in the light compartment to the whole time spent in the experiment was calculated. The increasing rate of the relative stay of the test compound to that of the vehicle control group was yielded, based on the rate of the stay of mice in the light compartment.
The anti-anxiety effect of the test compound was represented by the minimum effectivetive dose (MED) at which the increasing rate of the relative stay was regarded statistically as significant (Williams-Wilcoxon's test, p<0.05).

Experiment [2] concerns the target peripheral (ω3) benzodiazepine (BZ) receptor (Rattus norvegicus, UniProt P16257). The experiment in a line: BZω3 (peripheral-type) benzodiazepine receptor binding assay.
Description: Experiment 1: Central (ω1, ω2) and peripheral (ω3) benzodiazepine (BZ) receptor binding assays
BZω1 and BZω2 receptor binding assays were carried out according to the method of Stephens, D. N. et al. [cf.
Receptor membrane fractions for ω1, ω2 and ω3 were prepared from the cerebellum (ω1), spinal cord (ω1) or kidney (ω3) in 7-8 week old male rats of Wistar strain by the procedure described below.
After the cerebellum or spinal cord was homogenized with 20 volumes of ice-cold 50 mM Tris-citrate buffer (pH 7.1), the homogenate was centrifuged for 15 minutes at 40,000 g. The pellet obtained was washed 4 times by the same procedure, frozen and stored for 24 hours at -60° C. The resulting pellet, after being thawed, washed with the buffer and centrifuged, was suspended in the buffer I for the binding assay (50 mM Tris-HCl buffer containing 120 mM NaCl, 5 mM KCl, 2 mM CaCl2 and 1 mM MgCl2 ; pH 7.4) and the suspension thus obtained (containing 1 g wet tissue/40 ml) was used for the BZω1 and BZω2 receptor binding assays. On the other hand, the kidney was homogenized with 20 volumes of the ice-cold buffer II for the binding assay (50 mM Na--K phosphate buffer containing 100 mM NaCl; pH 7.4), filtered through 4 sheets of gauze, and centrifuged for 20 minutes at 40,000 g. The pellet obtained was suspended in the buffer II and the suspension (containing 1 g wet tissue/100 ml) was used for the binding assay as BZω3 receptor membrane source.
Flumazenil (final concentration: 0.3 nM for (ω1 and 1 nM for ω2) and flunitrazepam (final concentration: 10 μM) were used for the BZω1 or BZω2 receptor binding assays as the isotope-labeled and unlabeled ligands, respectively. For the BZω3 receptor binding assay, [^3 H] 4'-chlorodiazepam (7-chloro-1,3-dihydro-1-methyl-5-(4-chlorophenyl)-2H-1,4-benzodiazepin-2-one) (final concentration: 0.5 nM) and diazepam (final concentration: 100 μM) were used as the isotope-labeled and unlabeled ligands, respectively. Incubation was performed for 30 minutes at 37° C. in the BZω1 or BZω2 receptor binding assays, and for 150 minutes at 0° C. in the BZω3 receptor binding assay. The BZω1 or BZω2 receptor binding assays were carried out in the presence of bicuculline (final concentration: 100 μM).
The binding assay was performed by the following procedure. After adding each test compound at certain known concentrations, a [^3 H] ligand and the buffer I or II to each test tube, each assay was started by addition of membrane preparation (total volume of 1 ml). After incubation, the assay was terminated by filtration with suction through a Whatman GF/B glass fiber filter using a cell harvester (Brandel, USA). The filters were rapidly washed 3 times with 5 ml of ice-cold 50 mM Tris-HCl buffer (pH 7.7) for ω1 and ω2, or the buffer II forω3, and transferred to scintillation vials containing 10 ml liquid scintillation cocktail (ACS-II, Amersham, USA). After a few hours, retained radioactivity was counted by a liquid scintillation spectrometer. Specific binding of [^3 H] ligands was calculated as the difference between amounts of radioactivity bound in the presence and absence of excess unlabeled ligands.
The nature of experiment [3]: Isoniazid-induced clonic convulsion test (anti-convulsant effect). The class given is in vivo, mouse (Std-ddY, male). To be noted: Mus musculus, 0.5 h; oral, 30 min before isoniazid 200 mg/kg s.c.; mice; read-out: Anti-isoniazid effect ED25 (dose which prolonged the onset time of clonic convulsion by 25%). The source says: Experiment 3: Isoniazid-induced clonic convulsion test (anti-convulsant effect)
Isoniazid inhibits glutamate decarboxylase which catalyzes GABA synthesis, deases brain GABA levels, and induces clonic convulsion. According to the method of Auta, J. et al. [cf. J. Pharmacol. Exp. Ther. 265, 649-656 (1993)] with slight modification, we examined antagonistic effect of the test compounds on isoniazid-induced clonic convulsion. […] Those are BZ anxiolytics represented by diazepam, neurosteroids such as allopregnanolone, allotetrahydrodeoxycortico-sterone(THDOC) and BZω3 receptor agonists which enhance the synthesis of neurosteroids.
Male mice of Std-ddY strain weighing 22-24 g were used in a group of 6. Thirty minutes after oral administration of the test compounds, mice were injected with isoniazid (200 mg/kg, s.c.), and immediately thereafter, placed individually in acrylic observation cages. The onset time of clonic convulsion was measured (cut-off time: 90 minutes). The latency in the control group was about 40 minutes.
Anti-isoniazid effect of the test compounds was expressed as the dose which prolonged the onset time by 25% compared to that in the vehicle group (ED25). The ED25 value was calculated according to the Litchfield-Wilcoxon's method.

A short description of experiment [4]: Collagen-induced arthritis inhibitory test 1. To be noted: for severity of arthritis (arthritic score) versus control group / onset of arthritis delayed until (days after the booster immunization): 10 mg/kg oral daily; for onset of arthritis delayed until (days after the booster immunization): control onset on 28th day; for effect on collagen-induced arthritis inhibitory test (conclusion): experiment 4, 10 mg/kg oral. It counts as in vivo, mouse (DBA/1j, male). The procedure: Experiment 4: Collagen-induced arthritis inhibitory test 1
Collagen-induced arthritis inhibitory test is an experimental model for rheumatoid arthritis reported by Trethan, D. E. et al. [cf. […] J. Immunol., 140, 78-83 (1988)].
Collagen-induced arthritis inhibitory test was carried out according to Kakimoto, K. et al. (cf. above reference of Kakimoto, K. et al.) with slight modification. Solubilized bovine cartilage type II collagen (product of Elastine Products, U.S.A.) was emulsified in complete Freund's adjuvant (product of DIFCO Lab., U.S.A.). Male mice of DBA/1j strain (6 week-old; product of Nippon Charles River, Japan) were immunized by injection at the base of the tail with 150 μg of the emulsified collagen. After twenty one days from the immunization, arthritis was induced by a booster immunization of 150 μg of the emulsified collagen prepared in the same manner as above at the base of the tail again. A test compound was orally administered daily at the dose of 10 mg/kg from the first immunization. Mice were observed daily 5 days after the booster immunization for the onset of arthritis, and an arthritic score was derived by grading the severity of involvement of each paw five scales (0-4) according to the method of Wood, F. D. et al. [cf. Int. Arch. Allergy Appl. The severity of arthritis was estimated by the sum of the scores of all 4 paws, and the onset of the disease was determined when score 1 was observed.

As for `CCCN(CCC)C(=O)CNc1nc(-c2ccccc2)nc(C)c1C` [Example 1, 2-(5,6-dimethyl-2-phenyl-4-pyrimidinylamino)-N,N-dipropylacetamide], the minimal effective dose in experiment [1] stood at 0.3 mg/kg. In experiment [2], this molecule came in with an IC50 of 3.1 nM. In experiment [3], the ED25 was determined as 82.2 mg/kg.
The corresponding values for `CCCN(CCC)C(=O)CNc1nc(-c2ccc(Cl)cc2)nc(C)c1C` [Example 2, 2-[2-(4-Chlorophenyl)-5,6-dimethyl-4-pyrimidinylamino]-N,N-dipropylacetamide] are 0.01 mg/kg, 0.97 nM and 65.6 mg/kg.
With `CCN(CC)C(=O)CNc1nc(-c2ccccc2)nc(C)c1C` [Example 9], the minimal effective dose in experiment [1] was found to be 0.3 mg/kg. Also, the ED25 in experiment [3] is 25.5 mg/kg.
Take `CCN(CC)C(=O)CNc1nc(-c2ccc(Cl)cc2)nc(C)c1C` [Example 10, 2-[2-(4-Chlorophenyl)-5,6-dimethyl-4-pyrimidinylamino]-N,N-diethylacetamide]: the minimal effective dose in experiment [1] turned out to be 1 mg/kg. For the same molecule, in experiment [2], the half-inhibitory concentration (IC50) stood at 0.7 nM. The ED25 in experiment [3] came out at 36.9 mg/kg.
`CCCCN(CCCC)C(=O)CNc1nc(-c2ccc(F)cc2)nc(C)c1C` [Example 16]: the minimal effective dose in experiment [1] came out at 0.1 mg/kg. In experiment [2], this molecule displayed an IC50 of 4 nM.
Take `Cc1nc(-c2ccccc2)nc(NCC(=O)N(C)CC(C)C)c1C` [Example 21]: the minimal effective dose in experiment [1] worked out at 0.1 mg/kg. Moreover, the ED25 in experiment [3] worked out at 72.1 mg/kg.
As to `Cc1nc(-c2ccccc2)nc(NCC(=O)N(C)c2ccccc2)c1C` [Example 22], in experiment [1], the minimal effective dose stood at 0.3 mg/kg. Also, in experiment [2], the half-inhibitory concentration (IC50) came out at 3.26 nM. Also, in experiment [3], the ED25 turned out to be 50.3 mg/kg.
The corresponding values for `Cc1nc(-c2ccc(Cl)cc2)nc(NCC(=O)N(C)c2ccccc2)c1C` [Example 23, 2-[2-(4-Chlorophenyl)-5,6-dimethyl-4-pyrimidinylamino]-N-methyl-N-phenylacetamide] are 0.01 mg/kg, 1.76 nM and 40.8 mg/kg.
The corresponding values for `Cc1nc(-c2ccccc2)nc(NCC(=O)N(C)c2ccc(Cl)cc2)c1C` [Example 29, N-(4-Chlorophenyl)-N-methyl-2-(5,6-dimethyl-2-phenyl-4-pyrimidinylamino) a cetamide] are 0.03 mg/kg, 0.85 nM and 67.5 mg/kg.
For the molecule `Cc1nc(-c2ccccc2)nc(NCC(=O)N(C)c2cccc(Cl)c2)c1C` [Example 31], the minimal effective dose in experiment [1] is 0.3 mg/kg.
Turning to `Cc1nc(-c2ccccc2)nc(NCC(=O)N(C)c2ccc(F)cc2)c1C` [Example 35], the minimal effective dose in experiment [1] amounted to 0.1 mg/kg. The IC50 in experiment [2] came out at 1.51 nM. In addition, the ED25 in experiment [3] was 85.7 mg/kg.
The corresponding values for `Cc1nc(-c2ccc(Cl)cc2)nc(NCC(=O)N(C)c2ccc(F)cc2)c1C` [Example 36, 2-[2-(4-Chlorophenyl)-5,6-dimethyl-4-pyrimidinylamino]-N-(4-fluorophenyl)-N-methylacetamide] are 0.3 mg/kg, 1.44 nM and 54.2 mg/kg.
The corresponding values for `Cc1nc(-c2ccccc2)nc(NCC(=O)N(C)c2ccc(Br)cc2)c1C` [Example 37] are 0.1 mg/kg, 1.66 nM and 61.9 mg/kg.
In the case of `COc1ccc(N(C)C(=O)CNc2nc(-c3ccc(Cl)cc3)nc(C)c2C)cc1` [Example 42, 2-[2-(4-Chlorophenyl)-5,6-dimethyl-4-pyrimidinylamino]-N-(4-methoxyphenyl)-N-methylacetamide], the minimal effective dose in experiment [1] was under 0.01 mg/kg. Besides, the IC50 in experiment [2] amounted to 2.15 nM. In experiment [3], the ED25 came out at 58.7 mg/kg.
The corresponding values for `CCN(C(=O)CNc1nc(-c2ccc(Cl)cc2)nc(C)c1C)c1ccccc1` [Example 45, 2-[2-(4-Chlorophenyl)-5,6-dimethyl-4-pyrimidinylamino]-N-ethyl-N-phenylacetamide] are 0.1 mg/kg, 0.7 nM and 9.6 mg/kg.
On the same counts, the results for `CCCN(C(=O)CNc1nc(-c2ccccc2)nc(C)c1C)c1ccccc1` [Example 52, 2-(5,6-Dimethyl-2-phenyl-4-pyrimidinylamino)-N-phenyl-N-propylacetamide] are 0.1 mg/kg, 29.5 nM and 23.5 mg/kg.
In experiment [2], `CCCN(CCC)C(=O)CNc1cc(-c2ccccc2)nc(-c2ccccc2)n1` [Example 93, 2-(2,6-Diphenyl-4-pyrimidinylamino)-N,N-dipropylacetamide] displayed a 50% inhibitory concentration (IC50) of 4.1 nM. Besides, in experiment [4], the “severity of arthritis (arthritic score) versus control group” value is on record as “much lower than the control group”, the “onset of arthritis delayed until (days after the booster immunization)” value (“onset of arthritis delayed until” for short) was found to be 40 days and the “effect on collagen-induced arthritis inhibitory test (conclusion)” value is reported as “potent effect”.
Consider `CCCN(CCC)C(=O)COc1nc(-c2ccccc2)nc(C)c1C` [Example 136, 2-(5,6-dimethyl-2-phenyl-4-pyrimidinyloxy)-N,N-dipropylacetamide], for which the minimal effective dose in experiment [1] turned out to be 0.3 mg/kg. Further, the 50% inhibitory concentration (IC50) in experiment [2] worked out at 0.34 nM. Besides, in experiment [4], the “severity of arthritis (arthritic score) versus control group” value was “much lower than the control group”, the “onset of arthritis delayed until” value worked out at 34 days and the “effect on collagen-induced arthritis inhibitory test (conclusion)” value was “potent effect”.
As for `CCCN(CCC)C(=O)COc1nc(-c2ccc(OC)cc2)nc(C)c1C` [Example 139], the minimal effective dose in experiment [1] turned out to be 0.1 mg/kg. Also, the IC50 in experiment [2] came out at 0.38 nM.
`Cc1nc(-c2ccc(Cl)cc2)nc(OCC(=O)N(C)c2ccccc2)c1C` [Example 144, 2-[2-(4-Chlorophenyl)-5,6-dimethyl-4-pyrimidinyloxy]-N-methyl-N-phenylacetamide] showed an IC50 in experiment [2] of 0.31 nM. Moreover, in experiment [4], the “severity of arthritis (arthritic score) versus control group” value is “much lower than the control group”, the “onset of arthritis delayed until” value was determined as 37 days and the “effect on collagen-induced arthritis inhibitory test (conclusion)” value is “potent effect”.
Turning to `COc1ccc(-c2nc(C)c(C)c(OCC(=O)N(C)c3ccc(Cl)cc3)n2)cc1` [Example 150], the minimal effective dose in experiment [1] is 0.3 mg/kg.
